Measurements from ChEMBL document CHEMBL1201862, “PubChem BioAssay data set” (2004).
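The compound was tested at five concentrations on cells cultured in 96-well plates, with a 48-hour exposure period. Here, GI50 denotes the concentration required for 50% inhibition of growth.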 Activity calls are given as the source filed them. No stated cut-off is given here; in the data, active = GI50 up to about 1.1 µM and inactive = higher.

Tests used:
Experiment in all cases: NCI anticancer screen, dose series, 48 h
786-0 = tested on: 786-0
EKVX = tested on: EKVX
HCC 2998 = tested on: HCC 2998
HCT-15 = tested on: HCT-15
HL-60 = tested on: HL-60
HT-29 = tested on: HT-29
LOX IMVI = tested on: LOX IMVI
MDA-MB-231 = tested on: MDA-MB-231
MDA-MB-435 = tested on: MDA-MB-435
MOLT-4 = tested on: MOLT-4
RXF 393 = tested on: RXF 393
SK-MEL-28 = tested on: SK-MEL-28
SK-MEL-2 = tested on: SK-MEL-2
SR = tested on: SR
SW-620 = tested on: SW-620
U-251 = tested on: U-251
UACC-62 = tested on: UACC-62
KM12 = tested on: KM12
SK-OV-3 = tested on: SK-OV-3
UO-31 = tested on: UO-31

Compound | GI50 (786-0) | GI50 (EKVX) | GI50 (HCC 2998) | GI50 (HCT-15) [µM] | GI50 (HL-60) | GI50 (HT-29) | GI50 (LOX IMVI) | GI50 (MDA-MB-231) | GI50 (MDA-MB-435) | GI50 (MOLT-4) | GI50 (RXF 393) | GI50 (SK-MEL-28) | GI50 (SK-MEL-2) | GI50 (SR) | GI50 (SW-620) | GI50 (U-251) | GI50 (UACC-62) | GI50 (KM12) | GI50 (SK-OV-3) | GI50 (UO-31)
O=c1oc2c(Br)c(O)c(Br)cc2c2ccccc12 | 42.1 µM (inactive) | 23.2 µM (inactive) | 33.3 µM (inactive) | 19.2 | 23 µM (inactive) | 30 µM (inactive) | 23.8 µM (inactive) | 16.9 µM (inactive) | 36.6 µM (inactive) | 27.4 µM (inactive) | 38.6 µM (inactive) | 35.3 µM (inactive) | 28.2 µM (inactive) | 23.2 µM (inactive) | 36.6 µM (inactive) | 32.1 µM (inactive) | 20.1 µM (inactive) | – | – | –
Cc1ccc2[nH]c3[nH]c(=S)[nH]c(=O)c3c2c1 | > 100 µM (inactive) | > 100 µM (inactive) | > 100 µM (inactive) | > 100 | > 100 µM (inactive) | > 100 µM (inactive) | > 100 µM (inactive) | > 100 µM (inactive) | > 100 µM (inactive) | 97.5 µM (inactive) | > 100 µM (inactive) | – | > 100 µM (inactive) | > 100 µM (inactive) | > 100 µM (inactive) | – | > 100 µM (inactive) | > 100 µM (inactive) | > 100 µM (inactive) | > 100 µM (inactive)
O=[N+]([O-])c1cc(Cl)cc2cc(Cl)cnc12 | > 100 µM (inactive) | 83.2 µM (inactive) | > 100 µM (inactive) | > 100 | 62.4 µM (inactive) | > 100 µM (inactive) | > 100 µM (inactive) | 60.1 µM (inactive) | > 100 µM (inactive) | > 100 µM (inactive) | > 100 µM (inactive) | > 100 µM (inactive) | – | 63.8 µM (inactive) | > 100 µM (inactive) | > 100 µM (inactive) | 53.2 µM (inactive) | – | – | > 100 µM (inactive)
COc1ccc(CCN2CCN(CCCc3ccccc3)CC2)cc1 | > 100 µM (inactive) | > 100 µM (inactive) | 69.3 µM (inactive) | 37.7 | > 100 µM (inactive) | 33.5 µM (inactive) | > 100 µM (inactive) | > 100 µM (inactive) | > 100 µM (inactive) | 92 µM (inactive) | – | > 100 µM (inactive) | > 100 µM (inactive) | 47.8 µM (inactive) | > 100 µM (inactive) | > 100 µM (inactive) | > 100 µM (inactive) | 72.6 µM (inactive) | > 100 µM (inactive) | 55.6 µM (inactive)
CC1=NN(C(=O)CC(=O)Nc2ccccc2C)C(=O)C1/N=N/c1ccc(C(=O)O)cc1 (stereo unspecified) | > 100 µM (inactive) | > 100 µM (inactive) | > 100 µM (inactive) | > 100 | > 100 µM (inactive) | > 100 µM (inactive) | 79.3 µM (inactive) | > 100 µM (inactive) | > 100 µM (inactive) | 88.1 µM (inactive) | > 100 µM (inactive) | > 100 µM (inactive) | > 100 µM (inactive) | 43.4 µM (inactive) | > 100 µM (inactive) | > 100 µM (inactive) | > 100 µM (inactive) | > 100 µM (inactive) | – | 48.6 µM (inactive)
CC(NC(=O)Cc1ccc(OP(=O)(OCc2ccc([N+](=O)[O-])o2)N(C)CCCCCl)cc1)c1ccc(OCC2CCCCC2)c(C(N)=O)c1 (stereo unspecified) | 2.92 µM (inactive) | – | 1.35 µM (inactive) | 2.39 | 2.22 µM (inactive) | 1.39 µM (inactive) | 1.74 µM (inactive) | 2.08 µM (inactive) | 1.89 µM (inactive) | 1.52 µM (inactive) | 1.99 µM (inactive) | 1.65 µM (inactive) | 2.26 µM (inactive) | 1.48 µM (inactive) | 3.45 µM (inactive) | 2.14 µM (inactive) | 1.74 µM (inactive) | 2.4 µM (inactive) | 3.08 µM (inactive) | 2.58 µM (inactive)
Cc1c2cccc-2ccc2c1[nH]c1ccc(Br)cc12 | 14.3 µM (inactive) | 1.78 µM (inactive) | 15.2 µM (inactive) | 3.62 | 4.15 µM (inactive) | 13.2 µM (inactive) | 4.44 µM (inactive) | 4.33 µM (inactive) | 4.7 µM (inactive) | – | – | 7.03 µM (inactive) | 5.62 µM (inactive) | 3.04 µM (inactive) | 4.75 µM (inactive) | 3.21 µM (inactive) | 13 µM (inactive) | 2.47 µM (inactive) | 14.7 µM (inactive) | 4.65 µM (inactive)
COC1=C(Br)[C@H](O)[C@@]2(C=C1Br)CC(C(=O)NCCCCCNC(=N)N)=NO2 [APLYSINAMISINE II] | > 10 µM (inactive) | – | > 10 µM (inactive) | > 10 | > 10 µM (inactive) | > 10 µM (inactive) | > 10 µM (inactive) | > 10 µM (inactive) | > 10 µM (inactive) | > 10 µM (inactive) | > 10 µM (inactive) | > 10 µM (inactive) | > 10 µM (inactive) | 6.87 µM (inactive) | > 10 µM (inactive) | > 10 µM (inactive) | > 10 µM (inactive) | > 10 µM (inactive) | > 10 µM (inactive) | > 10 µM (inactive)
